Results on 38 molecules are retold here after patent publication US20210363152A1, “AMINOAZINE AMIDES” (Hoffmann-La Roche Inc., priority 2018, published 2021).

One may read the IC50 as the midpoint of a concentration-inhibition curve. A lower IC50 goes with greater potency in that assay.

Each structure is given as a SMILES string.

In the experiment the target is T1, Autotaxin enzyme (ATX) (Homo sapiens, UniProt Q13822).
T1 construct: purchased Echelon Biosciences, Inc. E-4000
The experiment is described as follows: In vitro ATX assay (enzymatic ATX inhibition, LPC 14:0 substrate, choline oxidase/HRP absorbance readout). In kind it is biochemical. To be noted: 0.3 mM LPC 14:0, 37° C., 4 hours, absorbance 555 nm. How it is done: • Assay buffer: 100 mM Tris-HCl, pH 9.0, 500 mM NaCl, 5 mM MgCl2, 30 μM CoCl2, 0.05% Triton X-100 • Assay buffer II: 4.5 mM 4-AAP, 2.7 mM TOOS, 21.2 U/mL HRP, 3 U/mL CO, In 50 mM Tris-HCl pH 8.0, 4.5 mM MgCl2
A compound preparation plate (Nunc 249944) was prepared by adding 30 mM stock solution (in DMSO) of test compound and performing a serial full-log dilution down to 30 nM. Two μL/well were transferred from the first compound prep plate to a compound dilution plate (Corning, 3641) and 198 μL assay buffer I was added for a […].
A 10 ng/mL solution of ATX was prepared by diluting in assay buffer I, and 80 μL/well were added to the assay plate (Corning, 3641); negative control wells contained 80 μL/well assay buffer I only (no ATX). Ten μL/well from the compound dilution plate (containing serially diluted test compound or DMSO) were added to the assay plate, which was then incubated at 37° C. for 15 minutes. A solution of LPC 14:0 was prepared in assay buffer I at 3 mM and 10 μl/well were added to the assay plate, for a final concentration of 0.3 mM LPC, and returned to 37° C. incubator for 4 hours. After 4 hour incubation, 100 μL/well of assay buffer II was added to all wells of the assay plate. The plate was incubated at RT for 15 minutes, prior to reading on FlexStation in absorbance mode, 555 nm. Results in the enzymatic ATX inhibition assay are provided for compounds of formula (I). An IC50 value of “A” is less than 100 nM, “B” is equal to or greater than 100 nM but less than 1 μM, “C” is equal to or greater than 1 μM.
`CC(C)c1cc(CNc2ccc(C(=O)N3CCC34COC4)cn2)cc(OC(F)(F)F)c1` [Example 76, (6-((3-Isopropyl-5-(trifluoromethoxy)benzyl)amino)pyridin-3-yl)(6-oxa-1-azaspiro[3.3]heptan-1-yl)methanone] yielded an IC50 of under 0.1 µM. In turn, `CC(C)Oc1cc(CNc2ncc(C(=O)N3CCC34COC4)cn2)cc(C2CC2)c1` [Example 38] displayed an IC50 of under 0.1 µM. Molecule `O=C(c1cnc(NC2Cc3cc(Br)c(Br)cc3C2)nc1)N1CCC12COC2` [Example 127, (2-((5,6-Dibromo-2,3-dihydro-1H-inden-2-yl)amino)pyrimidin-5-yl)(6-oxa-1-azaspiro[3.3]heptan-1-yl)methanone] came in with an IC50 of 0.1 to 1 µM. Turning to `CC(C)c1cc(CNc2ncc(C(=O)N3CCCCC3)cn2)cc(OC(F)(F)F)c1` [Example 22], the IC50 fell in the range of 0.1 to 1 µM. In the case of `O=C(c1cnc(NCc2cccc(C(F)(F)F)c2)nc1)N1CCC12COC2` [Example 20] it was at least 1 µM; in that of `N#Cc1ccc2c(c1)CC(Nc1ncc(C(=O)N3CCC34COC4)cn1)C2` (centres unmarked) [Example 34], 0.1 to 1 µM.

For the molecule `CC(C)c1cc(CNc2ncc(C(=O)N3CCCC3)cn2)cc(OC(F)(F)F)c1` [Example 21], the IC50 is under 0.1 µM. The molecule `CS(=O)(=O)CCN1CC2(CCN2C(=O)c2cnc(NCc3cc(OC(F)(F)F)cc(C4CC4)c3)nc2)C1` [Example 150, (2-((3-Cyclopropyl-5-(trifluoromethoxy)benzyl)amino)pyrimidine-5-yl) (6-(2-(methylsulfonyl)ethyl)-1,6-diazaspiro[3.3]heptan-1-yl)methanone] gave an IC50 of under 0.1 µM. Regarding `COC[C@@H]1CCCN1C(=O)c1cnc(NCc2cc(OC(F)(F)F)cc(C3CC3)c2)nc1` [Example 94, (S)-(2-((3-cyclopropyl-5-(trifluoromethoxy)benzyl)ami-no)pyrimidin-5-yl)(2-(methoxymethyl)pyrrolidin-1-yl)methanone], the IC50 lay within 0.1 to 1 µM.

Molecule `CC1(C)CCN1C(=O)c1cnc(NC2Cc3ccc(Cl)cc3C2)nc1` (centres unmarked) [Example 41] displayed an IC50 of under 0.1 µM. As to `O=C(c1cnc(NC2Cc3ccc(Cl)cc3C2)nc1)N1CCC12CCCOC2` (centres unmarked) [Example 48], the IC50 is under 0.1 µM. In the case of `CN1CCC2(CCN2C(=O)c2cnc(NCc3cc(OC(F)(F)F)cc(C4CC4)c3)nc2)C1` (centres unmarked) [Example 155, (2-((3-Cyclopropyl-5-(trifluoromethoxy)benzyl)amino)pyrimidin-5-yl)(6-methyl-1,6-diazaspiro[3.4]octan-1-yl)methanone] it was under 0.1 µM.

For `O=C(c1cnc(NCc2cc(OC(F)(F)F)cc(C3CC3)c2)nc1)N1CCC12CCC2` [Example 79, (2-((3-Cyclopropyl-5-(trifluoromethoxy)benzyl)amino)pyrimidin-5-yl)(1-azaspiro[3.3]heptan-1-yl)methanone], the IC50 is under 0.1 µM. The molecule `O=C(c1cnc(NCc2cc(C3CC3)cc(C(F)(F)F)c2)nc1)N1CCC12COC2` [Example 36] displayed an IC50 of under 0.1 µM. With `O=C(c1cnc(NCc2cc(OC(F)(F)F)cc(C3CC3)c2)nc1)N1CCC12CN(CC(F)(F)F)C2` [Example 148, (2-((3-Cyclopropyl-5-(trifluoromethoxy)benzyl)amino)pyrimidin-5-yl) (6-(2,2,2-trifluoroethyl)-1,6-diazaspiro[3.3]heptan-1-yl)methanone], the IC50 is under 0.1 µM. For `CCOc1ccc2c(c1)CC(Nc1ncc(C(=O)N3CCC34COC4)cn1)C2` (centres unmarked) [Example 162, (2-((5-Ethoxy-2,3-dihydro-1H-inden-2-yl)amino)pyrimidin-5-yl)(6-oxa-1-azaspiro[3.3]heptan-1-yl)methanone], the IC50 lay within 0.1 to 1 µM. In the case of `O=C(c1cnc(NCc2cc(OC(F)(F)F)cc(C3CC3)c2)nc1)N1CCC1` [Example 81, azetidin-1-yl(2-((3-cyclopropyl-5-(trifluoro-methoxy)benzyl)amino)-pyrimidin-5-yl)methanone] it was under 0.1 µM; in that of `CC(C)Oc1cc(CNc2ncc(C(=O)N3CCC34COC4)cn2)cc(OC(F)(F)F)c1` [Example 28], under 0.1 µM; in that of `CCc1ccc2c(c1)CC(Nc1ncc(C(=O)N3CCC34COC4)cn1)C2` (centres unmarked) [Example 126, (2-((5-Ethyl-2,3-dihydro-1H-inden-2-yl)amino)pyrimidin-5-yl) (6-oxa-1-azaspiro[3.3]heptan-1-yl)methanone], 0.1 to 1 µM.

In the case of `CC(C)Oc1cc(CNc2ncc(C(=O)N3CCC34COC4)cn2)cc(OC(C)C)c1` [Example 52], the IC50 was under 0.1 µM. In the case of `O=C(c1cnc(NCc2cc(OC(F)(F)F)cc(C3CC3)c2)nc1)N1CCc2cnccc21` [Example 91, (2-((3-cyclopropyl-5-(trifluoromethoxy)benzyl)ami-no)pyrimidin-5-yl)(2,3-dihydro-1H-pyrrolo[3,2-c]pyridin-1-yl)methanone] it was 0.1 to 1 µM; in that of `O=C(c1cnc(NCc2cc(OCC3CC3)cc(OC(F)(F)F)c2)nc1)N1CCC12COC2` [Example 27], under 0.1 µM. For the molecule `CC(C)c1cc(CNc2cnc(C(=O)N3CCC3)cn2)cc(OC(F)(F)F)c1` [Example 74, Azetidin-1-yl(5-((3-isopropyl-5-(trifluoromethoxy)benzyl)amino)pyrazin-2-yl)methanone], the IC50 was 0.1 to 1 µM.

Turning to `O=C(c1cnc(NCc2cc(OC(F)(F)F)cc(C3CC3)c2)nc1)N1CC2(COC2)C1` [Example 82, (2-((3-cyclopropyl-5-(trifluoromethoxy)benzyl)ami-no)pyrimidin-5-yl)(2-oxa-6-azaspiro[3.3]heptan-6-yl)methanone], the IC50 is 0.1 to 1 µM. For `Cc1cc2c(cc1C)CC(Nc1ncc(C(=O)N3CCC34COC4)cn1)C2` [Example 128, (2-((5,6-Dimethyl-2,3-dihydro-1H-inden-2-yl)amino)pyrimidin-5-yl)(6-oxa-1-azaspiro[3.3]heptan-1-yl)methanone], the IC50 is at least 1 µM. The molecule `CC(C)c1cc(CNc2ncc(C(=O)N3CCC3C)cn2)cc(OC(F)(F)F)c1` (single isomer, unassigned) [Example 70, (2-((3-Isopropyl-5-(trifluoromethoxy)benzyl)amino)pyrimidin-5-yl)(2-methylazetidin-1-yl)methanone] registered an IC50 of under 0.1 µM. The molecule `O=C(c1cnc(NCc2cc(OCC(F)(F)F)cc(OC(F)(F)F)c2)nc1)N1CCC12COC2` [Example 35] had an IC50 of under 0.1 µM. The molecule `O=C(c1cnc(NCc2cc(OC(F)(F)F)cc(C3CC3)c2)nc1)N1CC2(C1)CS(=O)(=O)C2` [Example 106, (2-((3-cyclopropyl-5-(trifluoromethoxy)benzyl)ami-no)pyrimidin-5-yl)(2,2-dioxido-2-thia-6-azaspiro[3.3]heptan-6-yl)methanone] had an IC50 of 0.1 to 1 µM. In the case of `O=C(c1cnc(NC2Cc3ccc(F)cc3C2)nc1)N1CCC12COC2` (centres unmarked) [Example 42] it was under 0.1 µM; in that of `COC[C@@H]1CCN1C(=O)c1cnc(NCc2cc(OC(F)(F)F)cc(C3CC3)c2)nc1` [Example 104, (S)-(2-((3-cyclopropyl-5-(trifluoromethoxy)benzyl)ami-no)pyrimidin-5-yl)(2-(methoxymethyl)azetidin-1-yl)methanone], under 0.1 µM; in that of `CC(C)(O)C1CCN1C(=O)c1cnc(NC2Cc3ccc(Cl)cc3C2)nc1` (centres unmarked) [Example 60], under 0.1 µM. In the case of `O=C(c1cnc(NCc2cc(OC(F)(F)F)cc(C3CC3)c2)nc1)N1CCC12CCOC2` (centres unmarked) [Example 97, (2-((3-cyclopropyl-5-(trifluoromethoxy)benzyl)ami-no)pyrimidin-5-yl)(6-oxa-1-azaspiro[3.4]octan-1-yl)methanone] it was under 0.1 µM; in that of `CS(=O)(=O)c1cc(CNc2ncc(C(=O)N3CCC34COC4)cn2)cc(OC(F)(F)F)c1` [Example 137, (2-((3-(Methylsulfonyl)-5-(trifluoromethoxy)benzyl)amino)pyrimidin-5-yl)(6-oxa-1-azaspiro[3.3]heptan-1-yl)methanone], at least 1 µM. To `O=C(c1cnc(NCc2cc(OC(F)(F)F)cc(C3CC3)c2)nc1)N1CCc2cccnc21` [Example 90, (2-((3-cyclopropyl-5-(trifluoromethoxy)benzyl)ami-no)pyrimidin-5-yl)(2,3-dihydro-1H-pyrrolo[2,3-b]pyridin-1-yl)methanone] belongs 0.1 to 1 µM; to `O=C(c1cnc(NCc2cc(OC(F)(F)F)cc(C3CC3)c2)nc1)N1CCC12COC2` [Example 80, (2-((3-cyclopropyl-5-(trifluoromethoxy)benzyl)ami-no)pyrimidin-5-yl)(6-oxa-1-azaspiro[3.3]heptan-1-yl)-methanone], under 0.1 µM. `Cc1ccc2c(c1)CC(Nc1ncc(C(=O)N3CCC34COC4)cn1)C2` (centres unmarked) [Example 124, (2-((5-Methyl-2,3-dihydro-1H-inden-2-yl)amino)pyrimidin-5-yl)(6-oxa-1-azaspiro[3.3]heptan-1-yl)methanone] returned an IC50 of 0.1 to 1 µM. Molecule `CC1CCN1C(=O)c1cnc(NCc2cc(OC(F)(F)F)cc(C(C)(C)C)c2)nc1` (centres unmarked) [Example 5] returned an IC50 of 0.1 to 1 µM.

In the case of `CC(C)c1cc(CNc2ncc(C(=O)N3CCC34COC4)cn2)cc(S(F)(F)(F)(F)F)c1` [Example 19], the IC50 fell in the range of 0.1 to 1 µM.
